According to patent US20110230467A1, “4,6-DIAMINONICOTINAMIDE COMPOUND” (Astellas Pharma Inc., priority 2008, published 2011):

Target: T1, human JAK3 kinase domain (Homo sapiens, UniProt P52333)
T1 construct: attached to the N-terminal of the 796-1124 (C-terminal) fragment of the human JAK3 protein; His-tag (N); purchased Carna Biosciences, Inc. (Kobe, Japan); host or cells: baculovirus expression system
Assay: JAK3 Inhibition Test (Test Example 1)
Assay type: biochemical
Details: purified human JAK3 kinase domain; 20 μM ATP in substrate solution; absorbance at 450 nm; read-out: IC50 (JAK3 inhibitory activity)
Excerpt: (1) Preparation of Human JAK3
Purified human JAK3 kinase domain was purchased from Carna Biosciences, Inc. (Kobe, Japan). This was afforded as described below. His-tag (41 kDa) was attached to the N-terminal of the 796-1124 (C-terminal) fragment of the human JAK3 protein (accession number #NM_000215), expressed using a baculovirus expression system, and then purified using Ni-NTA affinity column chromatography.
(2) Measurement of JAK3 Activity
As substrates, Biotin-Lyn-Substrate-2 (Biotin-XEQED EPEGF YFEWL EPE), X=ε-Acp (Peptide Institute, Inc., Osaka, Japan) and ATP were used. As an assay buffer, 15 mM Tris-HCl, pH 7.5, containing 0.01% Tween 20, and 2 mM DTT (dithiothreitol) was used. Normally, 20 μL of a substrate solution (an assay buffer containing 627 nM Biotin-Lyn-Substrate-2, 20 μM ATP, and 25 mM MgCl2), an assay buffer containing 10 μL of a compound to be tested, and 20 μL of an enzyme solution were added to a microplate, and stirred sufficiently.
After incubation at room temperature for one hour, the plate was washed with a cleaning buffer (50 mM Tris-HCl pH 7.5, 150 mM NaCl, 0.02% Tween 20), and a blocking buffer (a cleaning buffer containing 0.1% Bovine Serum Albumin) was added to the plate. After incubation at room temperature for 30 minutes, the blocking buffer was removed, and an HRP-PY-20 solution (afforded by diluting the HRP-PY-20 solution with the blocking buffer 500 times) was added. After incubation at room temperature for 30 minutes, the plate was washed four times, and a TMB substrate solution (Sigma) was added to the plate. After incubation at room temperature for 4 minutes, 1 M sulfuric acid was added to stop the reaction. Enzyme activity was measured as an absorbance at 450 nm. The JAK3 inhibitory activity of the test compound was calculated assuming that the concentration of the test compound inhibiting JAK3 activity by 50% is an IC50 value.

T1 sequence (P52333 796-1124): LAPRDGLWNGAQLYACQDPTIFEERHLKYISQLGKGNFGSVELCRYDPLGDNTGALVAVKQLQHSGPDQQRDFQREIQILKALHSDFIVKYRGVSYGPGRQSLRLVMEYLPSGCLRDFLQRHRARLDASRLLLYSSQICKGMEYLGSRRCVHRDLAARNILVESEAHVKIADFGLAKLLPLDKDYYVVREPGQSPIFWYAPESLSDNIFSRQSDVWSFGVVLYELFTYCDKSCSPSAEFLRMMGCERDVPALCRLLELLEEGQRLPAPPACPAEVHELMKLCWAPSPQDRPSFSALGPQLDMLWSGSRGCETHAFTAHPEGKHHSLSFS

Row | IC50 | SMILES
1 | 2 nM | Cc1cnc(Nc2cc(NC3CCN(c4ccc(C#N)nn4)CC3)c(C(N)=O)cn2)cn1 [Example 5-22]
2 | 0.29 nM | N#Cc1ccc(N2CC[C@@H](Nc3cc(Nc4ccncn4)ncc3C(N)=O)[C@@H](F)C2)nc1 [Example 5-10]
3 | 0.69 nM | NC(=O)c1cnc(Nc2ccc(N3C(=O)[C@@H]4CC[C@H]3C4)cn2)cc1NCc1c(F)ccc(F)c1F [Example 12-78]
4 | 0.74 nM | NC(=O)c1cnc(Nc2ccc(C(=O)N3CCCC3)cn2)cc1NCc1c(F)cccc1F [Example 8-6]
5 | 0.8 nM | Cc1nccc(Nc2cc(NC3CCN(c4ccc(C#N)cc4)CC3)c(C(N)=O)cn2)n1 [Example 5-8]
6 | 0.74 nM | N#Cc1ccc(N2CC[C@@H](Nc3cc(Nc4ccc(N5CCCCC5=O)cn4)ncc3C(N)=O)[C@@H](F)C2)nc1 [Example 5-55]
7 | 0.9 nM | N#Cc1ccc(N2CCC(Nc3cc(Nc4ccc(N5C(=O)[C@H]6CC[C@@H]5C6)cn4)ncc3C(N)=O)CC2)nc1 [Example 5-67]
8 | 0.25 nM | CN1CCC(=O)N(c2ccc(Nc3cc(NCc4c(F)cccc4F)c(C(N)=O)cn3)nc2)CC1 [Example 12-97]
9 | 0.36 nM | Cc1nccc(Nc2cc(NC3CCN(c4ccc(C#N)cn4)CC3)c(C(N)=O)cn2)n1 [Example 5-9]
10 | 1.6 nM | CN1CCCN(C(=O)c2ccc(Nc3cc(NCc4c(F)cccc4F)c(C(N)=O)cn3)nc2)CC1 [Example 8-9]
11 | 1 nM | N#Cc1cnc(N2CC[C@@H](Nc3cc(Nc4ccncn4)ncc3C(N)=O)[C@@H](F)C2)cn1 [Example 5-15]
12 | 0.58 nM | CN1CCN(c2ccc(Nc3cc(NCc4c(F)ccc(F)c4F)c(C(N)=O)cn3)nc2)C(=O)C1 [Example 12-73]
13 | 0.69 nM | NC(=O)c1cnc(Nc2ccc(N3CCCCC3=O)cn2)cc1NCc1c(F)ccc(F)c1F [Example 12-54]
14 | 0.24 nM | N#Cc1ccc(N2CCC(Nc3cc(Nc4ccncn4)ncc3C(N)=O)CC2)cn1 [Example 5-25]
15 | 0.14 nM | N#Cc1ccc(N2CC[C@@H](Nc3cc(Nc4ccccn4)ncc3C(N)=O)[C@@H](F)C2)nc1 [Example 5-72]
16 | 0.79 nM | NC(=O)c1cnc(Nc2ccc(N3CCCCCC3=O)cn2)cc1NCc1c(F)ccc(F)c1F [Example 12-79]
17 | 1.1 nM | N#Cc1ccc(N2CCC(Nc3cc(Nc4ccncn4)ncc3C(N)=O)CC2)nn1 [Example 5-18]
18 | 0.39 nM | Cc1nccc(Nc2cc(N[C@@H]3CCN(c4ccc(C#N)cn4)C[C@@H]3F)c(C(N)=O)cn2)n1 [Example 5-26]
19 | 0.69 nM | NC(=O)c1cnc(Nc2ccc(N3C(=O)[C@H]4CC[C@@H]3C4)cn2)cc1NCc1c(F)ccc(F)c1F [Example 12-80]
20 | 0.44 nM | CN1C(=O)N(c2ccc(Nc3cc(NCc4c(F)ccc(F)c4F)c(C(N)=O)cn3)nc2)C(=O)C1(C)C [Example 12-91]
21 | 0.34 nM | N#Cc1ccc(N2CC[C@@H](Nc3cc(Nc4cnccn4)ncc3C(N)=O)[C@@H](F)C2)nn1 [Example 5-11]
22 | 1 nM | NC(=O)c1cnc(Nc2cnccn2)cc1NCc1c(F)ccc(F)c1F [Example 12-50]
23 | 1 nM | CN1CCN(C(=O)c2ccc(Nc3cc(NCc4c(F)cccc4F)c(C(N)=O)cn3)nc2)CC1 [Example 8-8]
24 | 0.21 nM | N#Cc1ccc(N2CC[C@@H](Nc3cc(Nc4cnccn4)ncc3C(N)=O)[C@@H](F)C2)nc1 [Example 5-7]
25 | 0.8 nM | COC1CCN(C(=O)c2ccc(Nc3cc(NCc4c(F)cccc4F)c(C(N)=O)cn3)nc2)CC1 [Example 8-7]
26 | 0.24 nM | COCc1ccc(Nc2cc(N[C@@H]3CCN(c4ccc(C#N)cn4)C[C@@H]3F)c(C(N)=O)cn2)nc1 [Example 5-73]
27 | 0.86 nM | N#Cc1ccc(N2CCC(Nc3cc(Nc4ccc(N5CCCC5=O)cn4)ncc3C(N)=O)CC2)nc1 [Example 5-46]
28 | 0.43 nM | NC(=O)c1cnc(Nc2ccc(N3CCOCC3=O)cn2)cc1NCc1c(F)ccc(F)c1F [Example 12-76]
29 | 0.56 nM | NC(=O)c1cnc(Nc2ccc(N3CCOCCC3=O)cn2)cc1NCc1c(F)ccc(F)c1F [Example 12-81]
30 | 0.74 nM | CN1CCC(=O)N(c2ccc(Nc3cc(NCc4c(F)ccc(F)c4F)c(C(N)=O)cn3)nc2)CC1 [Example 12-74]
